# Values of other authors as cited in patent US8586092B2 (Xi'an Libang Pharmaceutical Technology Co., Ltd., priority 2009, dated 2013).
# Columns and labels:
# mouse = conditions: in vivo, sc
# rat = conditions: orally administered to rat
smiles,measurement,setting,value
CCO [ethanol],LD50,mouse,8285 mg/kg
"C[C@]12CC[C@@H]3c4ccc(O)cc4C[C@@H](CCCCCCCCC[S+]([O-])CCCC(F)(F)C(F)(F)F)[C@H]3[C@@H]1CC[C@@H]2O (stereo partly drawn) [Fulvestrant, 7-alpha-[9-(4,4,5,5,5-pentafluoropentylsulphinyl)nonyl]estra-1,3,5-(10)-triene-3,17-beta-diol]",aqueous solubility,,around 10 ng/ml
O=C(OCc1ccccc1)c1ccccc1 [Benzyl benzoate],LD50,rat,500 mg/kg
